Measurements from ChEMBL document CHEMBL3997765 (Medchemcomm, 2016).

Key:
[1] = biological target: Mitogen-activated protein kinase 14 (Homo sapiens, UniProt Q16539); assay: Inhibition of full length recombinant human GST-tagged p38alpha expressed in Escherichia coli at 10 uM using Ser/Thr04 peptide as substrate in presence of inactive MAPKAPK2 after 1 hr by FRET assay relative to control
[2] = biological target: Serine/threonine-protein kinase Chk1 (Homo sapiens) (UniProt O14757); assay: Inhibition of full length recombinant human His-tagged CHK1 expressed in baculovirus expression system at 10 uM by Z'-LYTE assay relative to control
[3] = biological target: Dual specificity tyrosine-phosphorylation-regulated kinase 3 (Homo sapiens) (UniProt O43781); assay: Inhibition of full length recombinant human GST-tagged DYRK3 expressed in baculovirus expression system at 10 uM by Z'-LYTE assay relative to control
[4] = biological target: Glycogen synthase kinase-3 beta (Homo sapiens) (UniProt P49841); assay: Inhibition of full length recombinant human His-tagged GSK3beta expressed in baculovirus expression system at 10 uM by Z'-LYTE assay relative to control
[5] = biological target: Interleukin-1 receptor-associated kinase 4 (Homo sapiens) (UniProt Q9NWZ3); assay: Inhibition of full length recombinant human His-tagged IRAK4 expressed in baculovirus expression system at 10 uM by Z'-LYTE assay relative to control
[6] = biological target: Mast/stem cell growth factor receptor Kit (Homo sapiens) (UniProt P10721); assay: Inhibition of KIT (unknown origin) at 10 uM by Z'-LYTE assay relative to control
[7] = biological target: Mitogen-activated protein kinase 3 (Homo sapiens) (UniProt P27361); assay: Inhibition of full length recombinant human GST-tagged ERK1 expressed in Escherichia coli at 10 uM by Z'-LYTE assay relative to control
[8] = biological target: Platelet-derived growth factor receptor beta (Homo sapiens) (UniProt P09619); assay: Inhibition of recombinant human His-tagged PDGFRbeta cytoplasmic domain (558 to 1106 residues) expressed in baculovirus expression system at 10 uM by Z'-LYTE assay relative to control
[9] = biological target: Phosphorylase b kinase gamma catalytic chain, liver/testis isoform (Homo sapiens) (UniProt P15735); assay: Inhibition of full length recombinant human GST-tagged PHKG2 expressed in baculovirus expression system at 10 uM relative to control
[10] = biological target: Serine/threonine-protein kinase pim-1 (Homo sapiens) (UniProt P11309); assay: Inhibition of full length recombinant human His-tagged PIM1 expressed in baculovirus expression system at 10 uM relative to control
[11] = biological target: Protein kinase C beta type (Homo sapiens) (UniProt P05771); assay: Inhibition of full length recombinant human PKCbeta1 expressed in baculovirus expression system at 10 uM relative to control
[12] = biological target: Proto-oncogene tyrosine-protein kinase Src (Homo sapiens) (UniProt P12931); assay: Inhibition of recombinant human C-terminal His-tagged SRC cytoplasmic domain expressed in baculovirus expression system at 10 uM by Z'-LYTE assay relative to control
[13] = biological target: Aurora kinase A (Homo sapiens) (UniProt O14965); assay: Inhibition of full length recombinant human His-tagged Aurora A expressed in baculovirus expression system at 10 uM by Z'-LYTE assay relative to control

Chain of Phosphorylase b kinase gamma catalytic chain, liver/testis isoform (Homo sapiens) (P15735 whole entry, canonical isoform): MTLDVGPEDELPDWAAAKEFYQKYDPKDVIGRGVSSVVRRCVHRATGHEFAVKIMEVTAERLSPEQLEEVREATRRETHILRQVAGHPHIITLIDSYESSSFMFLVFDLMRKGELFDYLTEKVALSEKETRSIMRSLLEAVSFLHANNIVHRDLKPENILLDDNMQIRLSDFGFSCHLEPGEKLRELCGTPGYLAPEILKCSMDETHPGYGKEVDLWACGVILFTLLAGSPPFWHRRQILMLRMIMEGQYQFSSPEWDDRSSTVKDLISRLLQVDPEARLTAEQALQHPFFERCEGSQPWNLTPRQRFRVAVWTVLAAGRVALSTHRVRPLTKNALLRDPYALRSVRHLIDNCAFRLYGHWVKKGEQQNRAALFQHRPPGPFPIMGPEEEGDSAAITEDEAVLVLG
Chain of Platelet-derived growth factor receptor beta (Homo sapiens) (P09619 whole entry, the tested form may be a part, canonical isoform): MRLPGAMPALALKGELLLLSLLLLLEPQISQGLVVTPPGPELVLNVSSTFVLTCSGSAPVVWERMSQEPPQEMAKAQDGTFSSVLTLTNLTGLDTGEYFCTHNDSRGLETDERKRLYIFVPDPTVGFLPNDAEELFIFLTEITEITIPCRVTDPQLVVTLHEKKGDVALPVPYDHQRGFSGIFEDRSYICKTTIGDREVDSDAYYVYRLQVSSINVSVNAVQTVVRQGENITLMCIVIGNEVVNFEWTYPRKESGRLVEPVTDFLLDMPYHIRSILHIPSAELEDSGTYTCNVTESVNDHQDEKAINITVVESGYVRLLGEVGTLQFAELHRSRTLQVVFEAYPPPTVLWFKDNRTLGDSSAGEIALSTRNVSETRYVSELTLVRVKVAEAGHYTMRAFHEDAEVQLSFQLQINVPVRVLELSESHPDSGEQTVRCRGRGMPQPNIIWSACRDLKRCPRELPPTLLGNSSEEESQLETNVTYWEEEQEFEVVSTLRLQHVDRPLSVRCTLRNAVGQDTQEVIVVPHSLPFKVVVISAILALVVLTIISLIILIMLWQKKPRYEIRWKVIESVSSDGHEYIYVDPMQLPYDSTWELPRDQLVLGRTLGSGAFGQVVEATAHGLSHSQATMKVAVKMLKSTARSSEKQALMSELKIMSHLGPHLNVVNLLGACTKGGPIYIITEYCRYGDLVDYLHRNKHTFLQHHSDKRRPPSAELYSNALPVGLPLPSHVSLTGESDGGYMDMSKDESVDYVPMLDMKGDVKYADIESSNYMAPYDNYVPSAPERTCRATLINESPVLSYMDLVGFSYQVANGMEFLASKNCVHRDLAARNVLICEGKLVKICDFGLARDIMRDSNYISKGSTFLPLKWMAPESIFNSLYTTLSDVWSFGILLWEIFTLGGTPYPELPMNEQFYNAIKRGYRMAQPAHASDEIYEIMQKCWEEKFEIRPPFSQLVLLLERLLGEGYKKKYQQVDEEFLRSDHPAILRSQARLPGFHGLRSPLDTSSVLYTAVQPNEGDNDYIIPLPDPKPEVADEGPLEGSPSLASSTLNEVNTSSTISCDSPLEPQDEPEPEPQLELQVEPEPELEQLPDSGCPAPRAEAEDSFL
Chain of Serine/threonine-protein kinase Chk1 (Homo sapiens) (O14757 whole entry): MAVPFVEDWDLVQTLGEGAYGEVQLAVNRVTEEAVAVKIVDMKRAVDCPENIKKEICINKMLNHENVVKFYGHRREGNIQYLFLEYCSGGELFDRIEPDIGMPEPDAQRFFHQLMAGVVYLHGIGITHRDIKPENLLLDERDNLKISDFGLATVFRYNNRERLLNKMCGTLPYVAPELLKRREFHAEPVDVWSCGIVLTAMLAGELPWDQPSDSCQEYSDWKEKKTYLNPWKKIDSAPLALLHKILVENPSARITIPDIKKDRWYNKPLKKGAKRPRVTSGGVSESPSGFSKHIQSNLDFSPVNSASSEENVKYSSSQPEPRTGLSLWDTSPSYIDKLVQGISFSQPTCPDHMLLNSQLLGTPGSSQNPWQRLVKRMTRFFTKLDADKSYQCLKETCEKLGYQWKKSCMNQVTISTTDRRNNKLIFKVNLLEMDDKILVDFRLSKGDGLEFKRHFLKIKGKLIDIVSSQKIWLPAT
Chain of Interleukin-1 receptor-associated kinase 4 (Homo sapiens) (Q9NWZ3 whole entry): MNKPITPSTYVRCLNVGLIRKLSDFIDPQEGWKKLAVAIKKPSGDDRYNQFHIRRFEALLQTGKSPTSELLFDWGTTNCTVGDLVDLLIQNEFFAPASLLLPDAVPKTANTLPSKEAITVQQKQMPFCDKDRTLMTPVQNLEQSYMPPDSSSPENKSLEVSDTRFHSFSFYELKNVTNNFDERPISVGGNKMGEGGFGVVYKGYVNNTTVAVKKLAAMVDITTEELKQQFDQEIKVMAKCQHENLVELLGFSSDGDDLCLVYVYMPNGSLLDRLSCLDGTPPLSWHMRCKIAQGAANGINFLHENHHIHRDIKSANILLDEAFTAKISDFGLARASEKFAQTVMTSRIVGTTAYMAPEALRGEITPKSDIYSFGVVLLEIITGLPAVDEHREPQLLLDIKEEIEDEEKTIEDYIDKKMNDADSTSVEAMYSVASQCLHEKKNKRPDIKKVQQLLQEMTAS
Chain of Serine/threonine-protein kinase pim-1 (Homo sapiens) (P11309 whole entry, looked up): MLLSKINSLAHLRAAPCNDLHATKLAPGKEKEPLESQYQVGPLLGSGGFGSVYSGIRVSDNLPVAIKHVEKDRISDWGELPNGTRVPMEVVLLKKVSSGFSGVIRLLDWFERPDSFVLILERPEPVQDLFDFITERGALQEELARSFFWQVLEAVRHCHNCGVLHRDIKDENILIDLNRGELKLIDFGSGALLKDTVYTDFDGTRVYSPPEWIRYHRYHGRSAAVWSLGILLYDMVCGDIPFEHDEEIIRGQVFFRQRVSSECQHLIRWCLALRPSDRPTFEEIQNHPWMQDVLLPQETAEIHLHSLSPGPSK
Chain of Glycogen synthase kinase-3 beta (Homo sapiens) (P49841 whole entry, looked up): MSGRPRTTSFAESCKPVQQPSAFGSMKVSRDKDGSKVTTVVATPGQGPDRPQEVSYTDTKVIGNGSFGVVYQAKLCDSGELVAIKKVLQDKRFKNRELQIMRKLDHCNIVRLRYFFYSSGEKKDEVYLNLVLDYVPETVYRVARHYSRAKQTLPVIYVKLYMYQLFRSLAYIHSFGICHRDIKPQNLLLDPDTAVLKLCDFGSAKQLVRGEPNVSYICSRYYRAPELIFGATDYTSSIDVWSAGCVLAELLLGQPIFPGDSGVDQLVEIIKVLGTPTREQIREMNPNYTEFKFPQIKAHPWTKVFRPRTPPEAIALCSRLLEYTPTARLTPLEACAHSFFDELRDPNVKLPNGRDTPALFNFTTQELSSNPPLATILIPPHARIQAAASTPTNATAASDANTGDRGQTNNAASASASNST
Chain of Protein kinase C beta type (Homo sapiens) (P05771 2-671 limits assumed): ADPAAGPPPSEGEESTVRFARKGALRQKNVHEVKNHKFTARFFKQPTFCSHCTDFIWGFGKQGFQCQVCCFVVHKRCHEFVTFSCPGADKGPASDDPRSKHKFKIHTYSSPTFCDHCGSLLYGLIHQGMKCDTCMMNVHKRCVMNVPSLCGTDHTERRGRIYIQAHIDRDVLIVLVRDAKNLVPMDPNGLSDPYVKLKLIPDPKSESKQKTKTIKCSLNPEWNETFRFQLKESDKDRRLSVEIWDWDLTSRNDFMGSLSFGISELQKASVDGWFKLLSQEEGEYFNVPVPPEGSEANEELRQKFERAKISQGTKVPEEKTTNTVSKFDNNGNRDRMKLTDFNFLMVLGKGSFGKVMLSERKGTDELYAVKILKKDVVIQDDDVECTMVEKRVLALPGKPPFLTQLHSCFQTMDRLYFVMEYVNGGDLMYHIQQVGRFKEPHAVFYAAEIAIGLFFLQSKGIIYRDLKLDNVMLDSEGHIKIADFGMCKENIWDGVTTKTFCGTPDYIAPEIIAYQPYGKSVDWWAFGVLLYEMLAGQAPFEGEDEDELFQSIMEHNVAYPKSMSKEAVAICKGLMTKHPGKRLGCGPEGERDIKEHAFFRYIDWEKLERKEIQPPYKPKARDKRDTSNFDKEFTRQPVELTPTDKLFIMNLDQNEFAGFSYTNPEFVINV
Chain of Proto-oncogene tyrosine-protein kinase Src (Homo sapiens) (P12931 2-536 limits assumed): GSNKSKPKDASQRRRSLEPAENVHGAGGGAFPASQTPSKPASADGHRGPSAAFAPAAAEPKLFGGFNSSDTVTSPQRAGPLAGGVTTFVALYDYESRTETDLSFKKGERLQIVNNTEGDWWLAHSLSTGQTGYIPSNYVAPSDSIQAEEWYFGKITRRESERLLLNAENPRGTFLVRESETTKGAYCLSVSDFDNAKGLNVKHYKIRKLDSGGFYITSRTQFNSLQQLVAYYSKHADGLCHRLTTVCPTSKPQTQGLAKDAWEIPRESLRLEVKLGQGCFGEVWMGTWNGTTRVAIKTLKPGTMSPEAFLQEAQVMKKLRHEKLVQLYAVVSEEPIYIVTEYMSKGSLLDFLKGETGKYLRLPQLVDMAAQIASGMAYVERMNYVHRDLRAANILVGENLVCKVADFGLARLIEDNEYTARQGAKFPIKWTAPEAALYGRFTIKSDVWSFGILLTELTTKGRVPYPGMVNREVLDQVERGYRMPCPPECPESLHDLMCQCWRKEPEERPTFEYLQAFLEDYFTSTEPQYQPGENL
Chain of Mitogen-activated protein kinase 14 (Q16539 whole entry): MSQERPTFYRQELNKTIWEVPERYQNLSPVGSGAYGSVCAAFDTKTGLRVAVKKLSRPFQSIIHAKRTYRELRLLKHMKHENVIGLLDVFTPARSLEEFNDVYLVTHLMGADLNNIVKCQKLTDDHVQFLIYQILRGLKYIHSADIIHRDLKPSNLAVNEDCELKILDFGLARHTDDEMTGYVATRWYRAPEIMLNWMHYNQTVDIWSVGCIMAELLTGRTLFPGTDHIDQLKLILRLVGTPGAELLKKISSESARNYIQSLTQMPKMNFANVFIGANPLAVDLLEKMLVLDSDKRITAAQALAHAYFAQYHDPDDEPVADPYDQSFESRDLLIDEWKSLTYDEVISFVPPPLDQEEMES

inhibition [1]: 37% | inhibition [2]: 3% | inhibition [3]: 8% | inhibition [4]: 7% | inhibition [5]: 3% | inhibition [6]: 3% | inhibition [7]: 5% | inhibition [8]: -1% | inhibition [9]: 2% | inhibition [10]: 3% | inhibition [11]: 1% | inhibition [12]: 3% | inhibition [13]: 6%
Structure (SMILES): CC1=Nc2c(Sc3ccccc3)ncnc2Sc2ccccc21
